Drawing on patent US8148371B2, “Adenine compound and use thereof” (Dainippon Sumitomo Pharma Co., Ltd., priority 2002, dated 2012), this text covers Residual rate and minimal effective concentration for 24 compounds.

The nature of series [1]: Metabolic stability on liver S9 of rat. Conditions: rat liver S9, test compound 1 μM, 37° C.
Method: The compound of the present invention is added to liver S9 solution, and the mixture is incubated at 37±0.5° C. for 5 minutes to 2 hours. By quantitatively analyzing at the definite interval the amount of the compound of the present invention remaining in the liver S9 solution with HPLC (high performance liquid chromatography), etc., the constant of quenching velocity is calculated and the half life is calculated.
The reaction on river S9 of a rat was carried out on a 96-well plate by using a robot for screening by Tecan Company. S9 solution was prepared by adding to 10 ml of liver S9 of a rat, 20 ml of 250 mM Kpi (pH 7.4) and 20 ml of deionized water. Cofactor solution was prepared by dissolving NADPH (220 mg) in deionized water (40.5 ml) to give finally a 6 mM solution. IS (Internal Standard) solution was prepared by adding 300 μL of IS solution (1 mM DMSO solution) to 30 ml of acetonitrile solution (100 times dilution). The test compound (1 μM DMSO solution) was dissolved in an incubator at 37° C., 35 μL of it was poured into each well of a 96-well plate (24 samples/plate and then, plates (a sample plate, a 96 well-plate for dilution, deep well plates for reaction and recovering, a plate for extraction of the solid phase) and the test samples (S9 solution, Cofactor solution, IS (Internal Standard) solution, Stop solution, acetonitrile for elution) were set to the specified position in the booth of the robot. The reaction started (the concentration of the test compound was 1 μM) and the mixture was incubated at 37° C. under stirring. The solid phase was extracted and at the same time the internal standard for analysis was added. To the recovered sample (200 μL/well) was added 50 μL of acetonitrile per each well and to 2 plates of FALCON Deep well were poured 100 μL of the solution per well. By subjecting to the LC/MS analysis, the chromatogram of the test sample and the internal standard were described and the peak area was calculated. And then, the stability (residual rate after reaction) was calculated by the internal standard method.
Another series deals with cells of mouse spleen. The series can be described thus: cells. It counts as cell-based, C3H/HeJ mouse. Conditions: Mus musculus, 24 h, read-out: Minimum effective concentration (interferon inducing activity).
For the next series, the system named is plasma esterase. Conditions: rat plasma, 37° C., 15 minutes.
Another series relates to cells of rat spleen. The experiment in a line: cells. Format: cell-based, SD rat. Conditions: 24 h, read-out: Minimum effective concentration (interferon inducing activity).

Structures are written as SMILES. Read-outs that look alike come from different tables or passages of the source. Marks after values point to notes of the source that are not given here. Some results are limits rather than exact numbers.

Method for plasma esterase: The compound of the present invention is added to the serum solution, and the mixture is incubated at 37±0.5° C. for 5 minutes to 2 hours. By quantitatively analyzing at the definite interval the amount of the compound of the present invention remaining in the serum solution with HPLC (high performance liquid chromatography), etc., the constant of quenching velocity calculated and the half life is calculated.
The serum herein means the supernatant fraction obtained by excluding hemocytes and blood coagulation factor from blood by centrifugation, etc. The serum diluted with buffer, etc. can be used.
The metabolic stability of the test compound was presented by the residual amount (%) per the concentration of pre-metabolization.

Turning to `CCNC(=O)CSc1nc(N)c2nc(O)n(Cc3ccccc3)c2n1` [Example 50, 9-Benzyl-2-(ethylcarbamoylmethyl)thio-8-hydroxyadenine], the Residual rate in series [1] came out at 7%. The minimal effective concentration in the series with cells of mouse spleen worked out at 0.1 µM.
Regarding `CCCCOc1nc(N)c2nc(O)n(Cc3ccc(CC(=O)OCC)cc3)c2n1` [Example 68, 2-Butoxy-8-hydroxy-9-(4-ethoxycarbonylmethylbenzyl)adenine], the Residual rate in series [1] is recorded as 13%; with plasma esterase (test compound 1 μM (*)), 0* %. In addition, the minimal effective concentration in the series with cells of rat spleen was determined as 0.0003 µM.
For `CCCCOc1nc(N)c2nc(O)n(Cc3ccc(CC(=O)OCCN4CCOCC4)cc3)c2n1` [Example 73, 2-Butoxy-8-hydroxy-9-{4-(2-morpholinoethoxycarbonyl)methylbenzyl}adenine] the same measures were 0%, 4* % and 0.0003 µM.
In the case of `COC(=O)c1cccc(CSc2nc(N)c3nc(O)n(Cc4ccccc4)c3n2)c1` [Example 103, 9-Benzyl-8-hydroxy-2-[(3-methoxycarbonylbenzyl)thio]adenine], the Residual rate in series [1] is 7%; in the series with plasma esterase (test compound 1 μM (*)), 6* %. In the series on cells of rat spleen, the minimal effective concentration was 0.01 µM.
For `CCCCOc1nc(N)c2nc(O)n(Cc3ccc(CC(=O)SC)cc3)c2n1` [Example 74, 2-Butoxy-8-hydroxy-9-{4-(S-methylthiocarbonyl)methylbenzyl}adenine], the Residual rate in series [1] is on record as 7%; in the series with plasma esterase (test compound 1 μM (*)) it was 0* %. In addition, the minimal effective concentration with cells of rat spleen was found to be 0.001 µM.
In the case of `CCCCOc1nc(N)c2nc(O)n(Cc3cccc(C(=O)OCC)c3)c2n1` [Example 2, 2-Butoxy-8-hydroxy-9-(3-ethoxycarbonylbenzyl)adenine], the Residual rate amounted to 11% in series [1] and 5% in the series on plasma esterase (test compound 10 μM). Moreover, in the series on cells of rat spleen, the minimal effective concentration is 0.001 µM.
Take `Nc1nc(SCCC(=O)O)nc2c1nc(O)n2Cc1ccccc1` [Comparative example 13, 9-Benzyl-8-hydroxy-2-(2-calboxylethyl)thioadenine, reference compound]: the minimal effective concentration with cells of rat spleen stood at 0.3 µM; with cells of mouse spleen it was 10 µM.
In the case of `COC(=O)CCc1nc(N)c2nc(O)n(Cc3ccccc3)c2n1` [Example 61, 9-Benzyl-8-hydroxy-2-(2-methoxycarbonylethyl)adenine], the Residual rate is 0% in series [1] and 0* % with plasma esterase (test compound 1 μM (*)). For the same compound, in the series with cells of rat spleen, the minimal effective concentration came to 0.003 µM.
Consider `COC(=O)COc1nc(N)c2nc(O)n(Cc3ccccc3)c2n1` [Example 64, 9-Benzyl-8-hydroxy-2-methoxycarbonylmethoxyadenine], for which the Residual rate in series [1] is recorded as 2%; in the series on plasma esterase (test compound 1 μM (*)) it was 0* %. Further, the minimal effective concentration in the series with cells of rat spleen was 0.003 µM.
As for `CCCCOc1nc(N)c2nc(O)n(Cc3cccc(CC(=O)O)c3)c2n1` [Comparative example 5, 2-Butoxy-8-hydroxy-9-(3-carboxymethylbenzyl)adenine, reference compound], the minimal effective concentration in the series on cells of rat spleen stood at 0.01 µM; with cells of mouse spleen it was 0.1 µM.
On to `CCCCOc1nc(N)c2nc(O)n(Cc3ccc(C(=O)O)o3)c2n1` [Comparative example 3, 2-Butoxy-8-hydroxy-9-(5-carboxyfurfuryl)adenine, reference compound], for which the minimal effective concentration worked out at 0.01 µM in the series with cells of rat spleen and 0.1 µM in the series with cells of mouse spleen.
As for `CCCCOc1nc(N)c2nc(O)n(Cc3cccc(CC(=O)OCCF)c3)c2n1` [Example 70, 2-Butoxy-8-hydroxy-9-{3-(2-fluoroethoxycarbonyl)methylbenzyl}adenine], the Residual rate in series [1] is recorded as 16%; in the series with plasma esterase (test compound 1 μM (*)) it was 0* %. Further, in the series on cells of rat spleen, the minimal effective concentration is 0.001 µM.
Consider `Cc1ccc(Cn2c(O)nc3c(N)nc(OCCO)nc32)cn1` [Comparative example 11, 8-Hydroxy-2-(2-hydroxyethoxy)-9-{(6-methyl-3-pyridyl)methyl}adenine, reference compound], for which, in the series with cells of mouse spleen, the minimal effective concentration amounted to 0.1 µM.
Turning to `Nc1nc(SCC(=O)O)nc2c1nc(O)n2Cc1ccccc1` [Comparative example 12, 9-Benzyl-8-hydroxy-2-(calboxylmethyl)thioadenine, reference compound], the minimal effective concentration worked out at 0.3 µM in the series with cells of rat spleen and 10 µM in the series on cells of mouse spleen.
For `CCCCOc1nc(N)c2nc(O)n(Cc3ccc(CC(=O)O)cc3)c2n1` [Comparative example 6, 2-Butoxy-8-hydroxy-9-(4-carboxymethylbenzyl)adenine, reference compound] the same measures were 0.01 µM and 0.03 µM.
As to `CCCCOc1nc(N)c2[nH]c(=O)n(Cc3cccc(CC(=O)OCC)c3)c2n1` [Example 80, 2-Butoxy-9-(3-ethoxycarbonylmethylbenzyl)-8-hydroxyadenine], the Residual rate in series [1] was 0%; with plasma esterase (test compound 1 μM (*)), 0* %. The minimal effective concentration with cells of rat spleen worked out at 0.001 µM.
As to `Cc1ccc(Cn2c(O)nc3c(N)nc(NCCO)nc32)cn1` [Comparative example 10, 8-Hydroxy-2-(2-hydroxyethylamino)-9-{(6-methyl-3-pyridyl)methyl}adenine, reference compound], the minimal effective concentration in the series on cells of mouse spleen worked out at 1 µM.
Turning to `Nc1nc(CC(=O)O)nc2c1nc(O)n2Cc1ccccc1` [Comparative example 8, 9-Benzyl-2-carboxymethyl-8-hydroxyadenine, reference compound], the figures for the minimal effective concentration with cells of rat spleen and with cells of mouse spleen were 3 µM and 10 µM, respectively.
For `CCCCOc1nc(N)c2nc(O)n(Cc3cccc(C(=O)O)c3)c2n1` [Comparative example 1, 2-Butoxy-8-hydroxy-9-(3-carboxybenzyl)adenine, reference compound] the same measures were 0.01 µM and 0.003 µM.
Turning to `CCCCOc1nc(N)c2nc(O)n(Cc3ccc(C(=O)OC)nc3)c2n1` [Example 17, 2-Butoxy-8-hydroxy-9-{(6-methoxycarbonyl-3-pyridyl)methyl}adenine], the Residual rate in series [1] was 28%; in the series with plasma esterase (test compound 10 μM), 0%. The minimal effective concentration in the series with cells of rat spleen is 0.001 µM.
In the case of `C=CCOC(=O)CSc1nc(N)c2nc(O)n(Cc3ccccc3)c2n1` [Example 44, 2-(Allyloxycarbonylmethyl)thio-9-benzyl-8-hydroxyadenine], the Residual rate (in series [1]; in the series with plasma esterase (test compound 10 μM)) was 0% throughout.
As to `CCCCOc1nc(N)c2nc(O)n(Cc3cccc(C(=O)OCCN4CCOCC4)c3)c2n1` [Example 8, 2-Butoxy-8-hydroxy-9-{3-(2-morpholinoethoxycarbonyl)benzyl}adenine], the Residual rate amounted to 1% in series [1] and 16% in the series with plasma esterase (test compound 10 μM).
On to `CCCCOc1nc(N)c2nc(O)n(Cc3ccc(CC(=O)OCCO)cc3)c2n1` [Example 71, 2-Butoxy-8-hydroxy-9-{4-(2-hydroxyethoxycarbonyl)methylbenzyl}adenine], for which the Residual rate was 0% in series [1] and 0* % in the series with plasma esterase (test compound 1 μM (*)). Moreover, the minimal effective concentration in the series with cells of rat spleen came out at 0.0003 µM.
On to `CCCCOc1nc(N)c2nc(O)n(Cc3cccc(CC(=O)OC)c3)c2n1` [Example 19, 2-Butoxy-8-hydroxy-9-(3-methoxycarbonylmethylbenzyl)adenine], for which the minimal effective concentration is 0.0003 µM in the series on cells of rat spleen and below 0.001 µM in the series with cells of mouse spleen.
